Measurements reported in US7699995B2, “Water treatment method” (priority 2006, dated 2010).

Key:
[1] = Stability in buffered water at various pH and temperatures (HPLC); assay type: physicochemical
Experimental: Biocides were added to buffer solutions and stability was tested at 22° and 50° C. using HPLC to measure biocide concentration at 0 time, 21 days, 43 days, and 88-90 days. Biocide stability was determined in the following buffer solutions: pH2, 0.01M HCl; pH6, 0.1M KH2PO4; pH8, 0.025M borate; pH10, 0.025M borate; pH12, 0.05M Na2HPO4. Biocide concentrations tested were 100 ppm MI, 200 ppm BIT, 44 ppm CMI.

[2] = system: natural, resident populations of Mycobacterium; test: Eradication of mycobacteria in naturally contaminated in-use metalworking fluids; assay type: cell-based; conditions: for No. of Fluids with ≧99% Kill (2-log reduction): of six fluids, 48 hours
Experimental: A comparative study was conducted evaluating six metalworking fluid biocides versus natural, resident populations of Mycobacterium from six in-use metalworking fluids. CMIT/MIT, CMIT/MIT/MCC, MIT, BIT, triazine, and PCMC microbicides were tested under controlled laboratory conditions to determine their efficacy at the maximum manufacturer's recommended dose rate (Table 2). The metalworking fluids were known to contain high levels of mycobacteria prior to dosing with biocides. Samples were then dosed with biocides, incubated with agitation at room temperature and viable mycobacteria counts determined after 48 hours by plating onto Middlebrook 7H10 medium, with Tween 80, glycerin, cyclohexamide, chloramphenicol, and gentamycin to suppress the growth of unwanted microorganisms.
The six metalworking fluid samples containing mycobacteria study from Example 7, were also tested using the same biocides with dosing at 50% of the maximum manufacturer's recommended rate (Table 2) under the same conditions. These metalworking fluids were known to contain high levels of mycobacteria prior to dosing with biocides. Samples were then dosed with biocides, incubated with agitation at room temperature and viable mycobacteria counts determined after 48 hours by plating onto Middlebrook 7H10 medium, with Tween 80, glycerin, cyclohexamide, chloramphenicol, and gentamycin to suppress the growth of unwanted microorganisms.

[3] = Stability with oxidizing and reducing agents at pH 7 and pH 9 (HPLC); assay type: physicochemical
Experimental: Oxidizing agents (2 mM) included hydrogen peroxide (H2O2; 68 ppm), t-butyl hydrogen peroxide (t-BHP; 180 ppm), and potassium persulfate (K2O8S2; 540 ppm). Reducing agents (2 mM) included iso-ascorbic acid (IAA; 352 ppm) and sodium bisulfite (NaHSO3; 208 ppm). Biocides were tested at 1 mM concentrations, representing 115 ppm MI and […].
The pH 7.0 buffer contained 0.00426% monopotassium phosphate plus 0.019% magnesium chloride hexahydrate. The pH 9.0 buffer contained 0.0046 M hydrochloric acid plus 0.013 M borax. Stock solutions of the redox agents were prepared and added to aliquots of each buffer to give 2 mM concentrations. The biocides were then added to give 1 mM concentrations. The samples were stored at 25° C. and analyzed for biocide level by HPLC at 0, 2 and 8 days.

[4] = system: Mycobacterium immunogenum (ATCC 700505); test: MBC test, transfer from MIC plates to fresh media; assay type: cell-based; conditions: M. immunogenum, no survivors after 2 days in fresh media
Experimental: (§1) Bacterial strains tested included Mycobacterium chelonae (ATCC 14472) and Mycobacterium immunogenum (ATCC 700505). Mycobacterial cultures were grown overnight at 30° C. (M. immunogenum) or 37° C. (M. chelonae), in a rotary shaking bath in Middlebrook […] with Middlebrook enrichment. A 1:20 dilution of the overnight culture was made into the appropriate test media and inoculated to give a final concentration of 10^6 to 10^7 CFU/ml.
(§2) MBC tests were conducted by transferring samples from the MIC test samples into fresh media and observing for growth of the culture. Growth was determined as above. In this test using Biomek 2000 Workstation, 10 μl samples taken from the 96-well MIC plates were placed in […] of fresh growth media to determine the number of surviving organisms for the same gradient of biocide concentrations. These plates were incubated and read in the same fashion as the MIC plates.

[5] = system: Mycobacterium chelonae (ATCC 14472); test: MBC test, transfer from MIC plates to fresh media; assay type: cell-based; conditions: M. chelonae, no survivors after 2 days in fresh media
Experimental: as §1, §2

[6] = K-persulfate 2 mM, pH 7, 25° C.
[7] = K-persulfate 2 mM, pH 9, 25° C.
[8] = Na bisulfite 2 mM, pH 7, 25° C.
[9] = Na bisulfite 2 mM, pH 9, 25° C.

Compound: O=c1[nH]sc2ccccc12 [BIT, 1,2-benzisothiazolin-3-one, reference compound]
- Percent Remaining at: pH 2 ([1]; 22° C., day 0): 100%
- Percent Remaining at: pH 6 ([1]; 22° C., day 0): 100%
- Percent Remaining at: pH 8 ([1]; 22° C., day 0): 100%
- Percent Remaining at: pH 10 ([1]; 22° C., day 0): 100%
- Percent Remaining at: pH 12 ([1]; 22° C., day 0): 100%
- Percent Remaining at: pH 2 ([1]; 22° C., day 21): 97%
- Percent Remaining at: pH 6 ([1]; 22° C., day 21): 100%
- Percent Remaining at: pH 8 ([1]; 22° C., day 21): 98%
- Percent Remaining at: pH 10 ([1]; 22° C., day 21): 100%
- Percent Remaining at: pH 12 ([1]; 22° C., day 21): 69%
- Percent Remaining at: pH 2 ([1]; 22° C., day 43): 83%
- Percent Remaining at: pH 6 ([1]; 22° C., day 43): 86%
- Percent Remaining at: pH 8 ([1]; 22° C., day 43): 77%
- Percent Remaining at: pH 10 ([1]; 22° C., day 43): 85%
- Percent Remaining at: pH 12 ([1]; 22° C., day 43): 55%
- Percent Remaining at: pH 2 ([1]; 22° C., day 88): 95%
- Percent Remaining at: pH 6 ([1]; 22° C., day 88): 100%
- Percent Remaining at: pH 8 ([1]; 22° C., day 88): 84%
- Percent Remaining at: pH 10 ([1]; 22° C., day 88): 96%
- Percent Remaining at: pH 12 ([1]; 22° C., day 88): 63%
- Percent Remaining at: pH 2 ([1]; 50° C., day 0): 100%
- Percent Remaining at: pH 6 ([1]; 50° C., day 0): 100%
- Percent Remaining at: pH 8 ([1]; 50° C., day 0): 100%
- Percent Remaining at: pH 10 ([1]; 50° C., day 0): 100%
- Percent Remaining at: pH 12 ([1]; 50° C., day 0): 100%
- Percent Remaining at: pH 2 ([1]; 50° C., day 21): 95%
- Percent Remaining at: pH 6 ([1]; 50° C., day 21): 100%
- Percent Remaining at: pH 8 ([1]; 50° C., day 21): 94%
- Percent Remaining at: pH 10 ([1]; 50° C., day 21): 100%
- Percent Remaining at: pH 12 ([1]; 50° C., day 21): 68%
- Percent Remaining at: pH 2 ([1]; 50° C., day 43): 80%
- Percent Remaining at: pH 6 ([1]; 50° C., day 43): 88%
- Percent Remaining at: pH 8 ([1]; 50° C., day 43): 73%
- Percent Remaining at: pH 10 ([1]; 50° C., day 43): 81%
- Percent Remaining at: pH 12 ([1]; 50° C., day 43): 55%
- Percent Remaining at: pH 2 ([1]; 50° C., day 90): 93%
- Percent Remaining at: pH 6 ([1]; 50° C., day 90): 100%
- Percent Remaining at: pH 8 ([1]; 50° C., day 90): 89%
- Percent Remaining at: pH 10 ([1]; 50° C., day 90): 95%
- Percent Remaining at: pH 12 ([1]; 50° C., day 90): 68%
- Log Reduction in Mycobacterial Counts versus Control (no biocide) ([2]; Fluid 1, 48 hours, 50% of recommended maximum dose): 0.00 log
- Log Reduction in Mycobacterial Counts versus Control (no biocide) ([2]; Fluid 1, 48 hours, 100% of recommended maximum dose): 0.00 log
- Log Reduction in Mycobacterial Counts versus Control (no biocide) ([2]; Fluid 2, 48 hours, 50% of recommended maximum dose): 0.00 log
- Log Reduction in Mycobacterial Counts versus Control (no biocide) ([2]; Fluid 2, 48 hours, 100% of recommended maximum dose): 0.00 log
- Log Reduction in Mycobacterial Counts versus Control (no biocide) ([2]; Fluid 3, 48 hours, 50% of recommended maximum dose): 0.00 log
- Log Reduction in Mycobacterial Counts versus Control (no biocide) ([2]; Fluid 3, 48 hours, 100% of recommended maximum dose): 0.60 log
- Log Reduction in Mycobacterial Counts versus Control (no biocide) ([2]; Fluid 4, 48 hours, 50% of recommended maximum dose): 0.00 log
- Log Reduction in Mycobacterial Counts versus Control (no biocide) ([2]; Fluid 4, 48 hours, 100% of recommended maximum dose): 0.00 log
- Log Reduction in Mycobacterial Counts versus Control (no biocide) ([2]; Fluid 5, 48 hours, 50% of recommended maximum dose): 0.00 log
- Log Reduction in Mycobacterial Counts versus Control (no biocide) ([2]; Fluid 5, 48 hours, 100% of recommended maximum dose): 0.06 log
- Log Reduction in Mycobacterial Counts versus Control (no biocide) ([2]; Fluid 6, 48 hours, 50% of recommended maximum dose): 0.00 log
- Log Reduction in Mycobacterial Counts versus Control (no biocide) ([2]; Fluid 6, 48 hours, 100% of recommended maximum dose): 0.00 log
- No. of Fluids with ≧99% Kill (2-log reduction) ([2]; 50% of recommended maximum dose): 0
- No. of Fluids with ≧99% Kill (2-log reduction) ([2]; 100% of recommended maximum dose): 0
- % Remaining after 2 Days ([3]; H2O2 2 mM, pH 7, 25° C.): 39%
- % Remaining after 8 Days ([3]; H2O2 2 mM, pH 7, 25° C.): 15%
- % Remaining after 2 Days ([3]; H2O2 2 mM, pH 9, 25° C.): 8%
- % Remaining after 8 Days ([3]; H2O2 2 mM, pH 9, 25° C.): 0%
- % Remaining after 2 Days ([3]; IAA 2 mM, pH 7, 25° C.): 89%
- % Remaining after 8 Days ([3]; IAA 2 mM, pH 7, 25° C.): 86%
- % Remaining after 2 Days ([3]; IAA 2 mM, pH 9, 25° C.): 77%
- % Remaining after 8 Days ([3]; IAA 2 mM, pH 9, 25° C.): 75%
- % Remaining after 2 Days [3, 6]: 0%
- % Remaining after 8 Days [3, 6]: 0%
- % Remaining after 2 Days [3, 7]: 0%
- % Remaining after 8 Days [3, 7]: 0%
- % Remaining after 2 Days [3, 8]: 38%
- % Remaining after 8 Days [3, 8]: 28%
- % Remaining after 2 Days [3, 9]: 82%
- % Remaining after 8 Days [3, 9]: 77%
- % Remaining after 2 Days ([3]; no redox agent, pH 7, 25° C.): 100%
- % Remaining after 8 Days ([3]; no redox agent, pH 7, 25° C.): 100%
- % Remaining after 2 Days ([3]; no redox agent, pH 9, 25° C.): 100%
- % Remaining after 8 Days ([3]; no redox agent, pH 9, 25° C.): 100%
- % Remaining after 2 Days ([3]; t-BHP 2 mM, pH 7, 25° C.): 43%
- % Remaining after 8 Days ([3]; t-BHP 2 mM, pH 7, 25° C.): 8%
- % Remaining after 2 Days ([3]; t-BHP 2 mM, pH 9, 25° C.): 38%
- % Remaining after 8 Days ([3]; t-BHP 2 mM, pH 9, 25° C.): 6%
- Minimum Biocidal Concentration [4]: 188 ppm active
- Minimum Biocidal Concentration [5]: 75 ppm active
